Test results from publication PMC8231572, “New Heparanase-Inhibiting Triazolo-Thiadiazoles Attenuate Primary Tumor Growth and Metastasis” (Cancers, 2021).
“Also recorded” adds a separate entry of the source.

What was measured:
[1] = molecular target: T1, heparanase (Homo sapiens, UniProt Q9Y251); experiment: Colorimetric heparanase assay (fondaparinux/Arixtra cleavage, WST-1); type: biochemical; conditions: fondaparinux substrate, heparanase 140 pM, pH 5.0, 37 °C, 18 h; for IC50: read-out: IC50, inhibition of heparanase enzymatic activity (converted)
T1 sequence (Q9Y251 158-543 limits assumed): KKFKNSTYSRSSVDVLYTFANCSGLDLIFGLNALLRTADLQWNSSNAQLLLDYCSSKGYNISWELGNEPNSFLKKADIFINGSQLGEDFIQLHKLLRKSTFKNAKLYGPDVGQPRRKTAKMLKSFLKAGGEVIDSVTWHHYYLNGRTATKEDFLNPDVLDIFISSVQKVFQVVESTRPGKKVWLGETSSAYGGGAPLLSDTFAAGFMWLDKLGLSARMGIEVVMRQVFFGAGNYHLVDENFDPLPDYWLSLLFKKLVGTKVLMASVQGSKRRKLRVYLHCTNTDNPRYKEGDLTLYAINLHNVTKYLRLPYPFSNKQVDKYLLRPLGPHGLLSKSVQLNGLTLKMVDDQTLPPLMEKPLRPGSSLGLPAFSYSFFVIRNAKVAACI
T1 sequence (Q9Y251 36-109 limits assumed): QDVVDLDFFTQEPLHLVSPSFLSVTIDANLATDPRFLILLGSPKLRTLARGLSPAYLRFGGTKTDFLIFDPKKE
Method: The assay was carried out in a 96-well plate in which the formation of the disaccharide product upon cleavage of fondaparinux (Arixtra, GlaxoSmithKline, Brentford, UK) was estimated using WST-1 tetrazolium salt as described earlier. In brief, the reaction system (100 μL) comprised sodium acetate buffer (pH 5.0, 40 mM) and fondaparinux ([…]) with or without different doses of chemicals under investigation. The assay was initiated by the addition of recombinant heparanase to make the final concentration of 140 pM. The reaction vessels were placed at 37 °C for 18 h, followed by the addition of stop solution (100 μL). WST-1 prepared in 0.1 M NaOH served as a stop solution. Thereafter, the plates were incubated at 60 °C for 60 min, and absorbance was measured at 584 nm. N-(4-([4-(1H-Benzoimidazol-2-yl)-arylamino]-methyl)-phenyl)-benzamide (compound #98) was used as a reference compound. The title compounds were examined for their inhibitory efficacy towards heparanase at 10 and 50 μg/mL. Compounds that yielded inhibition at these concentrations were further tested at lower concentrations to determine their IC50.
The newly synthesized compounds presented in Table 1 were examined for their ability to inhibit the enzymatic activity of recombinant heparanase. For the initial screening of compounds, we applied a colorimetric assay based on the cleavage of the synthetic heparin pentasaccharide fondaparinux (Arixtra). The assay measures the appearance of a disaccharide product of heparanase-catalyzed fondaparinux cleavage, using the tetrazolium salt WST-1 [23]. All compounds were first tested for inhibition of heparanase at 10 and 50 μg/mL (not shown). Compounds that yielded inhibition at these high concentrations were further examined at lower concentrations to determine their IC50 (Figure 2).

[2] = molecular target: T1, heparanase; experiment: ECM degradation heparanase assay (sulfate-labeled ECM, Sepharose 6B gel filtration); type: biochemical; conditions: heparanase 200 ng, 5 h; for inhibition of heparanase activity (ECM degradation): 5 µg/mL compound; for inhibition at 25 µg/mL: 25 µg/mL compound
Method: ECM degradation heparanase assay was carried out as reported earlier. Briefly, ECM labeled with sulfate [^35S] [25] and coating the surface of 35-mm cultures plates was treated with heparanase (200 ng/mL) with or without compounds under investigation. The medium was collected to examine the cleavage of HS proteoglycans and subjected to molecular sieving on Sepharose 6B columns. The radioactivity was measured in the eluted fractions (0.2 mL). Blue dextran and phenol red were used to mark the excluded volume (Vo) and included volume (Vt), respectively. The cleaved HS chains were eluted at 0.5 < Kav < 0.8 (fractions 16–32), and the nearly intact proteoglycan was eluted with the void volume.
To validate the results and better resemble the in vivo situation, we applied metabolically sulfate [Na2^35SO4] labeled extracellular matrix (ECM) deposited by cultured endothelial cells. This naturally produced substrate closely resembles the subendothelial basement membrane in its composition, biological function, and barrier properties. […] This semi-quantitative assay measures release of radioactive heparan sulfate (HS) degradation fragments from an insoluble extracellular matrix (ECM) that is firmly bound to a culture dish.
(§1) Figure 3 Inhibition of ECM degradation and cell invasion. (A) ECM degradation. Active heparanase (200 ng) was incubated for 5 h without (red) or with 5 and 25 µg/mL of 4-CMI, 4-MDI, or 4-MMI on dishes coated with sulfate-labeled ECM. Labeled material released from the ECM was subjected to gel filtration (Sepharose 6B). Heparan sulfate degradation fragments are typically eluted in fractions 18–30. (B) Cell invasion. U87 human glioma cells (2 × 10^5) were plated onto Matrigel-coated 8 μm transwell filters and incubated (6 h, 37 °C) in the absence (Con) or presence of 4-MMI or 4-CMI (10 µg/mL). (C) Dose–response showing the effect of compound 4-MMI (2.5, 10, and 40 µg/mL) on U87 cell invasion. Invading cells adhering to the lower side of the membrane were visualized (top panels) and quantified (bottom panel) in 7 random fields as described in ‘Materials and Methods’.

[3] = system: U87 human glioma cells; experiment: Cell invasion through Matrigel-coated transwell filters (Boyden chambers); type: cell-based; conditions: 10 µg/mL, 6 h, 37 °C, Matrigel-coated 8 μm transwell filters
Method: Invasion assay was performed using Boyden chambers as reported previously. Briefly, U87 cells (5 × 10^5) were seeded into the upper chamber of the invasion chamber in a medium devoid of serum, and the lower chamber contained media supplemented with serum. The cell invasion on treatment with title compounds (4-MMI, 4-CMI; […]) was analyzed by staining with 0.5% crystal violet (Sigma-Aldrich) and photographed.
as §1

[4] = system: 4T1 mouse breast carcinoma cells; experiment: 4T1 breast carcinoma experimental metastasis, IVIS bioluminescence imaging; type: in vivo, BALB/c mice; conditions: IVIS day 13
Method: 4TI mouse breast cancer cells tagged with luciferase (1.5 × 10^5/0.1 mL/BALB/c mouse) were inoculated intravenously. Test compounds (i.p., 500 μg/mouse) or DMSO (0.1 mL/mouse) were administered 20 min before cell injection. The mice were analyzed using IVIS bioluminescent on day 7 and day 13 post-inoculation. These cells metastasize primarily to the lungs.
The bioluminescence imaging of tumors generated from luciferase-expressing cancer cells was carried out using a highly sensitive, cooled charge-coupled device camera assembled in a specimen box (IVIS; Xenogen Corp, Hopkinton, MA, USA). The imaging has advantages such as real-time capture, non-invasive, and quantitative values. For this, the tumor-bearing mice were intraperitoneally administered with a luciferase substrate D-luciferin at a dose of 150 mg/kg body weight. The experimental animal was anesthetized and kept in a camera box followed by continuous exposure to isoflurane (EZAnesthesia, Palmer, PA, USA). The bioluminescence from the tumor mass was detected by the IVIS system, and, subsequently, the tumor burden was quantified using Living Image software (Xenogen).
Figure 4 Inhibition of 4T1 breast carcinoma experimental metastasis. […] Quantification of the luciferase intensities is shown graphically in the lower panel, as described in ‘Section 2. […]

[5] = system: MPC-11 mouse myeloma cells; experiment: MPC-11 syngeneic myeloma tumor growth; type: in vivo
Method: The mouse myeloma (MPC-11) cells were gently washed with PBS and the cell number was adjusted to 5 × 10^6 cells/mL. Thereafter, six-week-old female BALB/c mice (n = 6) were subcutaneously injected with washed MPC-11 cells (5 × 10^5/0.1 mL). The experimental animals were treated with either DMSO alone (0.1 mL/mouse) or 4-MMI (daily 200 μg/mouse, i.p.) starting from day 2 after the implantation of tumor cells, for 12 days. The tumor size was measured using calipers on day 8 and day 12. The tumor volume (V) was determined using the equation V = L × W^2 × 0.52, where L is the length and W is the width of the tumor. Lastly, the mice were euthanized and xenograft tumors were removed, weighed, and fixed using formalin for further studies.
Figure 5 MPC-11 tumor growth. Cells (MPC-11 mouse myeloma) from exponential cultures were washed with PBS and brought to a concentration of 5 × 10^6 cells/mL. Cell suspension (5 × 10^5/0.1 mL) was inoculated subcutaneously at the right flank of 6-week-old female BALB/c mice (n = 6). Mice were treated with either DMSO (0.1 mL/mouse) or test compound (daily 200 µg/mouse, i.p.), starting on day 2 after the injection of tumor cells, for 12 days. Tumor size was determined on days 8 and 12 by externally measuring the tumors in two dimensions using a caliper (A, p < 0.001). […]

[6] = system: VEGF; experiment: Immunostaining of MPC-11 tumor sections with anti-VEGF antibodies; type: in vivo, BALB/c mice; conditions: tumors of mice treated daily with 200 μg/mouse i.p.
Method: Next, we examined the capacity of compound 4-MMI to inhibit myeloma primary tumor growth. For this purpose, we applied the MPC-11 syngeneic myeloma model. Briefly, BALB/c mice were implanted subcutaneously with MPC-11 mouse myeloma cells (0.5 × 10^6/mouse) and treated with either DMSO (0.1 mL/mouse) or 4-MMI (daily 200 μg/mouse, i.p.), starting on day two after tumor cell inoculation. Xenograft Tumor size was measured on days 8 and 12 (Figure 5A), resected, and weighed (Figure 5B) (see also Figure S2).
Figure S2. MPC-11 tumor growth. MPC-11 cells were inoculated subcutaneously at the right flank of 6-weeks old female Balb/C mice (n=6). Mice were treated with either DMSO (0.1 ml/mouse) or 4-MMI (daily 200 μg/mouse, i.p.) starting on day 2 after the injection of tumor cells, for 12 days. Tumor size was determined on days 8 and 12 (left panel). At the end of the experiment, mice were sacrificed and the tumors were resected and weighed (right panel). For more detail see figure 5.
Figure S3. Immunostaining. Tumors produced by untreated (control) a nd 4-MMI treated Balb/c mice were removed (day 13), fixed and embedded in paraffin. Five micron sections were subjected to immunostaining applying anti-VEGF antibodies. Shown are representative images (original magnification x100). […]

[7] = system: tumor cell; design: method as in PMID 28359266; conditions: cited from earlier work

Compound | IC50 [1] [µM] | inhibition of heparanase activity (ECM degradation) [2] | inhibition at 25 µg/mL [2] [%] | invasion capacity of U87 cells [3] | further results
Cc1ccc(-c2nnc3sc(-c4cc(I)cc(I)c4O)nn23)cc1 [4-MDI, 2,4-diiodo-6-(3-(p-tolyl)-[1,2,4]triazolo[3,4-b][1,3,4]thiadiazol-6-yl)phenol] | 22.3 | little or no inhibition | 50 to 70 | – | –
Cc1ccc(-c2nnc3sc(-c4cc(I)ccc4O)nn23)cc1 [4-MMI, 4-iodo-2-(3-(p-tolyl)-[1,2,4]triazolo[3,4-b][1,3,4]thiadiazol-6-yl)phenol] | 7.14 | little or no inhibition | 50 to 70 | significantly inhibited | inhibition of 4T1 experimental metastasis (extravasation and lung colonization, luciferase intensity) ([4]; 500 μg/mouse i.p. 20 min before i.v. cell inoculation): inhibited the extravasation of 4T1 cells and their subsequent colonization in the mouse lungs; also recorded: nearly fourfold inhibition; tumor growth and tumor burden (tumor size days 8 and 12, tumor weight) ([5]; daily 200 μg/mouse i.p. from day 2 for 12 days, s.c. MPC-11 tumors): effectively and markedly decreased the rate of tumor growth and the tumor burden; also recorded: profound inhibition of tumor growth and burden; signs of distress and toxicity ([5]; daily administration of 200 ug/mouse/day): no signs of distress and toxicity; VEGF levels in tumor sections [6]: marked decrease in the levels of VEGF; also recorded: profound reduction in VEGF levels
N-(4-([4-(1H-Benzoimidazol-2-yl)-arylamino]-methyl)-phenyl)-benzamide [Compound #98, reference compound] | – | – | – | – | IC50, inhibition of heparanase enzymatic activity [1]: 0.7 µg/mL
Roneparstat [reference compound] | – | – | – | – | inhibition of 4T1 experimental metastasis (luciferase intensity) ([4]; positive control 150 µg/mouse i.p. 20 min before i.v. cell inoculation): comparable

More lines, main results first:

IC50 [1] [µM] | inhibition of heparanase activity (ECM degradation) [2] | inhibition at 25 µg/mL [2] [%] | Compound | invasion capacity of U87 cells [3] | further results
6.6 | little or no inhibition | 50 to 70 | Oc1ccc(I)cc1-c1nn2c(-c3ccc(Cl)cc3)nnc2s1 [4-CMI, 2-(3-(4-chlorophenyl)-[1,2,4]triazolo[3,4-b][1,3,4]thiadiazol-6-yl)-4-iodophenol] | significantly inhibited | –
54.9 | – | – | Oc1c(I)cc(I)cc1-c1nn2c(-c3ccccc3)nnc2s1 [DTP, 2,4-Diiodo-6-(3-phenyl-[1,2,4]triazolo[3,4-b][1,3,4]thiadiazol-6yl)phenol, reference compound] | – | IC50 values, inhibition of tumor cell proliferation, migration, and invasion in vitro [7]: micromolar range
